# Measured values: the METLIN SMRT retention time set (Domingo-Almenara et al. 2019)
# Assay: gradient 5% acetonitrile 3 min, to 50% in 2 min, to 85% in 15 min, held 3 min, 100 µL/min
# Settings: column: Zorbax Extend-C18 2.1 x 50 mm; eluents: water / acetonitrile, 0.1% formic acid
# Method in brief: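 Each retention time is based on an adduct peak selected computationally and verified by manual inspection. Measurements used HPLC–quadrupole time-of-flight mass spectrometry in positive and negative ionization mode on mixtures of ~100 pure standards. Chromatography ran on a Zorbax Extend-C18 column (2.1 × 50 mm, 1.8 μm) at 100 μL/min with water and acetonitrile, each containing 0.1% formic acid, and dead and dwell volumes of 40 μL and 900 μL.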
row,Structure (SMILES),RP-LC retention time [s]
1,O=S(=O)(Cc1ccc(Cl)cc1)N1CCC(CN2CCCCCC2)CC1,683
2,Cc1cc(N2CCCC2)n2nc(CN3CCN(CC(C)C)CC3)nc2n1,549
3,CCNc1cc(N2CCC(CCC(=O)NCc3ccccc3C)CC2)ncn1,651
4,CC(C)CN(C[C@@H](O)[C@H](Cc1ccccc1)NC(=O)O[C@H]1CO[C@H]2OCC[C@H]21)S(=O)(=O)c1ccc(N)cc1,830
5,O=C1NCCCCCN(Cc2ccc(F)cc2F)[C@H]2CCC[C@@H]12,623
6,O=C(CSc1nc2ncccc2[nH]1)NC1CCCC1,585
7,Fc1cc(F)cc(-c2nnc(Cc3nc(-c4cccc(C(F)(F)F)c4)no3)o2)c1,851
8,CCOc1ccc(CC(=O)N2CCCC2c2c(C)noc2C)cc1 (configuration not stated),902
9,Cc1ccc(NC(=O)Cn2nc(C(=O)N3CCCC3)c3ccccc32)cc1,850
10,O=C(c1n[nH]c2ccccc12)N1CCC[C@H]1c1nc(-c2ccccc2)n[nH]1,683
11,CCn1ncc2ccc(C(N)=O)cc21,599
12,CCC1CCCCN1C(=O)c1cnc2nc(C)ccc2c1Nc1cc(Cl)ccc1OC (configuration not stated),731
13,CN(C)C(=O)c1csc(N2CCN(c3ccccc3F)CC2)n1,884
14,Cc1c(Cl)cccc1S(=O)(=O)N1CCCN(c2ccc(=O)n(-c3ccccc3)n2)CC1,944
15,CN(C)c1cc(C(N)=O)c2ccccc2n1,694
16,Cc1cc(C)c(C)c(S(=O)(=O)NCC(=O)NCc2ccco2)c1C,573
17,COc1ccc(-n2ncc3c(=O)n(Cc4nc(-c5cccc(C)c5)no4)cnc32)cc1,1050
18,Cc1cc(C)c(S(=O)(=O)N2CCc3c(c(CN4CCCC4)nn3C)C2)c(C)c1,686
19,O=C(CCC1CCCN(C(=O)Nc2ccccc2)C1)NCc1ccc(F)cc1F (configuration not stated),816
20,O=C(NC1CCCCCC1)C1CC(=O)N(CCc2c[nH]c3ccc(Cl)cc23)C1 (configuration not stated),871

row,Structure (SMILES),RP-LC retention time [s]
1,Cn1c(=O)c2ccn(CC(=O)N3CCN(c4ccccc4F)CC3)c2n(C)c1=O,851
2,Cc1ccc(NC(=O)CN2C(=O)NC3(CCCCC3)C2=O)c(C)c1,774
3,O=C(Cn1c(=O)oc2ccccc21)N1CCN(c2ccccn2)CC1,598
4,CN(C)c1cccc(C(=O)N2CCN(C(=O)c3nnn4c3COC(c3ccc(Cl)cc3)C4)CC2)c1 (configuration not stated),881
5,COc1ccc(CN2CCC(C3CCNC3)CC2)c(OC)c1 (configuration not stated),548
6,O=C(C1CCCO1)N1CCN(c2nc3cccnc3n(Cc3ccccc3)c2=O)CC1 (configuration not stated),856
7,COc1ccc(N2CCN(S(=O)(=O)c3cc(-c4nc(C(C)C)cs4)cs3)CC2)cc1,1250
8,O=C(N[C@@H]1CN(Cc2ccc3c(c2)CCO3)C[C@H]1CO)C1CC1,632
9,CC(C)CC(=O)N1CCC2(CC1)NCc1ccccc1-n1ccnc12,594
10,CCn1ccc2sc(C)c(C(=O)NC3CCCC3)c2c1=O,733
11,CCc1ccc(-c2cn3cc(C(=O)NCCN4CCN(CC)CC4)ccc3n2)cc1,576
12,COc1ccc2[nH]c(=O)c(CCC(=O)NCCCN3CCCC(C)C3)cc2c1 (configuration not stated),585
13,O=S(=O)(c1ccc(-c2nnc(C3CC3)o2)o1)N1CCCCCC1,898
14,CCCn1c(CCNC(=O)c2ccc(C)c(F)c2)nc2cccnc21,695
15,O=C(Nc1cccc(Cl)c1)c1nnc(COCC(=O)N2CCN(c3ccccn3)CC2)s1,657
16,CCOc1ccccc1NC(=O)N1CCC(C)(C(=O)NCc2ccc(F)cc2)CC1,906
17,Cc1ccccc1Oc1nccnc1N1CCCC(C(=O)NC2CCCCCC2)C1 (configuration not stated),1120
18,CCCNC(=O)C1CCN(c2ccc(SCC(=O)N(C)c3ccccc3)nn2)CC1,627
19,Cc1cnc(CC2CCN(S(=O)(=O)Cc3ccccc3)C2)n1C(C)C (configuration not stated),663
20,CN(Cc1ccoc1)C(=O)NC1CCCC1,763

# Second part, the compound after the results:
row,RP-LC retention time [s],Structure (SMILES)
1,692,COc1ccc(NC(=O)C2CCN(C(=O)C3Sc4ccccc4NC3=O)CC2)cc1OC (configuration not stated)
2,1140,CCn1nccc1-c1cccc(-c2noc(-c3ccc4cc[nH]c4c3)n2)c1
3,824,COc1ccc(CNC(=O)c2c(C)oc3ccn(C)c(=O)c23)cc1
4,755,Cc1ccc(CN2CCN(CC(C)C(=O)NCc3ccc(F)cc3F)C(=O)C2=O)cc1 (configuration not stated)
5,957,COc1ccc(-c2nnc(Cc3nc(-c4ccccc4C)no3)o2)cc1OC
6,996,Cc1c(-c2noc(-c3ccc4cc[nH]c4c3)n2)nnn1-c1ccc(F)cc1
7,789,CN1c2ccc(Cl)cc2C(=O)NC12CCN(C(=O)NCc1ccccc1)CC2
8,816,CCn1nnc2cc(-c3noc(CNC(=O)Cc4ccc(Cl)cc4)n3)ccc21
9,829,Cc1ccc(Nc2c(-c3cccc(O)c3)nc3cnccn23)cc1Cl
10,647,O=C(NCCN1CCOCC1)c1nc2ccccn2c1-c1ccc(Cl)cc1
11,676,CCN1CCCn2cc(S(=O)(=O)NCc3ccc(C)o3)cc2C1=O
12,1100,CC(C)Oc1ccc(-c2noc(CCn3nc(-c4ccc(F)cc4)ccc3=O)n2)cc1
13,901,Cc1nc(C(=O)Nc2ccc(Cl)cc2)c(C)o1
14,1030,O=C(Nc1cc(-c2ccsc2)no1)c1ccc(Cl)s1
15,1300,Cn1nccc1-c1cccc(-c2noc(-c3cccc(Br)c3)n2)c1
16,872,COC(=O)c1cccc(N2C=C(C#N)S(=O)(=O)c3cc(F)ccc32)c1
17,628,Cc1cc(=O)n(CC(=O)Nc2ccccc2)c(N2CCOCC2)n1
18,623,Cc1ccc2oc(N3CCN(C(=O)c4cccc(-c5noc(C)n5)c4)CC3)nc2n1
19,984,O=c1n(Cc2ccccc2)nc2c(-c3nc(-c4ccccc4)no3)cccn12
20,719,O=C(O)c1ccc(NC(=O)c2ccc([N+](=O)[O-])cc2Cl)cc1
21,780,CCc1ccccc1NC(=O)C1CC(=O)N(c2ccc3c(c2)CCN3C(=O)C2CC2)C1 (configuration not stated)
22,829,O=c1oc2c(-c3ccc([N+](=O)[O-])cc3)cc(O)cc2s1
23,940,CC(=O)c1cccc(NC(=O)c2cnn(-c3ccc(Br)cc3)c2)c1
24,1080,Cc1nc2c(sc3nc(-c4ccccc4)ccc32)c(=O)n1CC(=O)NCCc1ccc(Cl)cc1
25,830,COc1ccc2nc(C(=O)NCc3ccccc3Cl)cn2n1
26,865,CCCCN(C)C(=O)Cn1nc(C)c2sc(-c3ccccc3)nc2c1=O
27,1140,CCOc1ccc(-c2cc3c(=O)n(Cc4nc(-c5ccc(Cl)cc5)no4)ncn3n2)cc1
